The text below walks through data of article PMC5218480 (PLoS ONE, 2017).

The test deals with MV-4-11 cells. Put plainly: Gene expression microarray analysis (Affymetrix PrimeView) and GSEA. It counts as cell-based, human. Particulars: ProbeSet 11723141_at; LIST B. Further details: RFU PODN (11730768_x_at) / Fold change /veh PODN (11730768_x_at) / RFU LINC00158 (11744669_a_at) / Fold change /veh LINC00158 (11744669_a_at) / RFU DUSP10 (11751237_a_at) / Fold change /veh DUSP10 (11751237_a_at) / RFU ID3 (11757404_x_at) / Fold change /veh ID3 (11757404_x_at) / RFU PLEKHG5 (11737974_s_at) / Fold change /veh PLEKHG5 (11737974_s_at) / RFU LRRC4B (11730491_at) / Fold change /veh LRRC4B (11730491_at) / RFU GIMAP4 (11747438_a_at) / Fold change /veh GIMAP4 (11747438_a_at) / RFU KRT8 (11758183_x_at) / Fold change /veh KRT8 (11758183_x_at) / RFU CNN1 (11734310_a_at) / Fold change /veh CNN1 (11734310_a_at) / RFU VPS37D (11726825_at) / Fold change /veh VPS37D (11726825_at) / RFU C10orf10 (11716522_x_at) / Fold change /veh C10orf10 (11716522_x_at) / RFU KIR2DL2 /// KIR2DL4 /// KIR2DL5A /// KIR2DL5B /// KIR2DS1 /// KIR2DS2 /// KIR2DS3 /// KIR2DS4 /// KIR3DL3 /// KIR3DL3 /// KIR3DS1 (11738374_at) / Fold change /veh KIR2DL2 /// KIR2DL4 /// KIR2DL5A /// KIR2DL5B /// KIR2DS1 /// KIR2DS2 /// KIR2DS3 /// KIR2DS4 /// KIR3DL3 /// KIR3DL3 /// KIR3DS1 (11738374_at) / RFU C1QL1 (11718748_at) / Fold change /veh C1QL1 (11718748_at) / RFU TMPRSS4 (11747572_a_at) / Fold change /veh TMPRSS4 (11747572_a_at) / RFU HAMP (11756126_x_at) / Fold change /veh HAMP (11756126_x_at) / RFU RNFT2 (11725882_a_at) / Fold change /veh RNFT2 (11725882_a_at) / RFU NR4A2 (11747474_a_at) / Fold change /veh NR4A2 (11747474_a_at) / RFU ABCC12 (11746883_a_at) / Fold change /veh ABCC12 (11746883_a_at) / RFU TMEM136 (11760407_x_at) / Fold change /veh TMEM136 (11760407_x_at) / RFU CLDN22 /// WWC2 (11732394_at) / Fold change /veh CLDN22 /// WWC2 (11732394_at) / RFU HLA-DPB1 (11760878_x_at) / Fold change /veh HLA-DPB1 (11760878_x_at) / RFU SPINT1 (11716480_a_at) / Fold change /veh SPINT1 (11716480_a_at) / RFU GAP43 (11754022_s_at) / Fold change /veh GAP43 (11754022_s_at) / RFU A4GNT (11735810_at) / Fold change /veh A4GNT (11735810_at) / RFU PRB3 (11715151_x_at) / Fold change /veh PRB3 (11715151_x_at) / RFU TUBB4B (11761932_at) / Fold change /veh TUBB4B (11761932_at) / RFU CAPN14 (11732068_a_at) / Fold change /veh CAPN14 (11732068_a_at) / RFU TMCC2 (11721928_a_at) / Fold change /veh TMCC2 (11721928_a_at) / RFU IRGQ (11745062_a_at) / Fold change /veh IRGQ (11745062_a_at) / RFU FAM174B (11720279_a_at) / Fold change /veh FAM174B (11720279_a_at) / RFU TMPRSS4 (11748680_a_at) / Fold change /veh TMPRSS4 (11748680_a_at) / RFU FAM212B (11763350_a_at) / Fold change /veh FAM212B (11763350_a_at) / RFU PLEKHG5 (11743358_a_at) / Fold change /veh PLEKHG5 (11743358_a_at) / RFU ZSCAN30 (11745921_a_at) / Fold change /veh ZSCAN30 (11745921_a_at) / RFU CMKLR1 (11741424_a_at) / Fold change /veh CMKLR1 (11741424_a_at) / RFU LOC101060620 /// MAPK8IP1 (11723275_at) / Fold change /veh LOC101060620 /// MAPK8IP1 (11723275_at) / RFU SPTSSB (11747773_x_at) / Fold change /veh SPTSSB (11747773_x_at) / RFU PRSS12 (11739890_at) / Fold change /veh PRSS12 (11739890_at) / RFU BIN1 (11741810_x_at) / Fold change /veh BIN1 (11741810_x_at) / RFU WNT11 (11732464_a_at) / Fold change /veh WNT11 (11732464_a_at) / RFU C10orf10 (11716521_a_at) / Fold change /veh C10orf10 (11716521_a_at) / RFU C5orf56 (11738089_at) / Fold change /veh C5orf56 (11738089_at) / RFU CYB561 (11721691_x_at) / Fold change /veh CYB561 (11721691_x_at) / RFU ANKRD19P (11752326_a_at) / Fold change /veh ANKRD19P (11752326_a_at) / RFU OR2T12 /// OR2T33 /// OR2T8 (11738714_s_at) / Fold change /veh OR2T12 /// OR2T33 /// OR2T8 (11738714_s_at) / RFU VCAN (11748164_a_at) / Fold change /veh VCAN (11748164_a_at) / RFU JSRP1 (11732532_at) / Fold change /veh JSRP1 (11732532_at) / RFU KRTAP10-11 (11738290_x_at) / Fold change /veh KRTAP10-11 (11738290_x_at) / RFU MYO3A (11730013_a_at) / Fold change /veh MYO3A (11730013_a_at) / RFU EBF3 (11725865_a_at) / Fold change /veh EBF3 (11725865_a_at) / RFU CAMK2N1 (11719241_x_at) / Fold change /veh CAMK2N1 (11719241_x_at) / RFU C5orf56 (11738088_a_at) / Fold change /veh C5orf56 (11738088_a_at) / RFU OLFML3 (11715873_a_at) / Fold change /veh OLFML3 (11715873_a_at) / RFU LOC100653217 /// NTM (11731650_a_at) / Fold change /veh LOC100653217 /// NTM (11731650_a_at) / RFU MAPK11 (11762145_a_at) / Fold change /veh MAPK11 (11762145_a_at) / RFU FIZ1 (11724087_x_at) / Fold change /veh FIZ1 (11724087_x_at) / RFU OASL (11726364_x_at) / Fold change /veh OASL (11726364_x_at) / RFU SOX15 (11748057_x_at) / Fold change /veh SOX15 (11748057_x_at) / RFU CD79A (11719716_a_at) / Fold change /veh CD79A (11719716_a_at) / RFU HIST1H1D (11736915_at) / Fold change /veh HIST1H1D (11736915_at) / RFU CASKIN2 (11723855_a_at) / Fold change /veh CASKIN2 (11723855_a_at) / RFU LOC730098 (11760151_x_at) / Fold change /veh LOC730098 (11760151_x_at) / RFU OR4N2 (11742367_at) / Fold change /veh OR4N2 (11742367_at) / RFU PRRT2 (11749266_a_at) / Fold change /veh PRRT2 (11749266_a_at) / RFU SNX32 (11753110_a_at) / Fold change /veh SNX32 (11753110_a_at) / RFU CDHR5 (11726645_a_at) / Fold change /veh CDHR5 (11726645_a_at) / RFU RCAN1 (11760418_a_at) / Fold change /veh RCAN1 (11760418_a_at) / RFU FAM167A (11723789_a_at) / Fold change /veh FAM167A (11723789_a_at) / RFU FAM26E (11764081_at) / Fold change /veh FAM26E (11764081_at) / RFU ISYNA1 (11749810_s_at) / Fold change /veh ISYNA1 (11749810_s_at) / RFU ACY1 (11761880_at) / Fold change /veh ACY1 (11761880_at) / RFU 11764098_at / Fold change /veh 11764098_at / RFU SAMD14 (11745864_x_at) / Fold change /veh SAMD14 (11745864_x_at) / RFU NPB (11741838_a_at) / Fold change /veh NPB (11741838_a_at) / RFU TMPRSS6 (11731388_a_at) / Fold change /veh TMPRSS6 (11731388_a_at) / RFU KRTAP10-2 (11738614_at) / Fold change /veh KRTAP10-2 (11738614_at) / RFU ARHGAP8 /// PRR5-ARHGAP8 (11727945_x_at) / Fold change /veh ARHGAP8 /// PRR5-ARHGAP8 (11727945_x_at) / RFU KRTAP5-7 /// NADSYN1 (11734609_at) / Fold change /veh KRTAP5-7 /// NADSYN1 (11734609_at) / RFU RASL12 (11751679_a_at) / Fold change /veh RASL12 (11751679_a_at) / RFU CDKN2B (11736163_a_at) / Fold change /veh CDKN2B (11736163_a_at) / RFU PRF1 (11729649_at) / Fold change /veh PRF1 (11729649_at) / RFU, ZNF638 /// ZNF638-IT1 / Fold change vs veh, ZNF638 /// ZNF638-IT1 / RFU, PANK3 / Fold change vs veh, PANK3 / RFU, SH3YL1 / Fold change vs veh, SH3YL1 / RFU, ZEB2 / Fold change vs veh, ZEB2 / RFU, NRIP1 / Fold change vs veh, NRIP1 / RFU, PTTG1IP / Fold change vs veh, PTTG1IP / RFU, CAPN2 / Fold change vs veh, CAPN2 / RFU, MED14 / Fold change vs veh, MED14 / RFU, SNORA58 / Fold change vs veh, SNORA58 / RFU, C1orf63 / Fold change vs veh, C1orf63 / RFU, LRRFIP1 / Fold change vs veh, LRRFIP1 / RFU, NDUFAF7 / Fold change vs veh, NDUFAF7 / RFU, SLC12A2 / Fold change vs veh, SLC12A2 / RFU, IBTK / Fold change vs veh, IBTK / RFU, ESF1 / Fold change vs veh, ESF1 / Fold change vs veh, TMEM50B / RFU, TAOK1 / Fold change vs veh, TAOK1 / RFU, ACBD3 / Fold change vs veh, ACBD3 / RFU, TMA16 / Fold change vs veh, TMA16 / RFU, RWDD3 / Fold change vs veh, RWDD3 / RFU, BCAT1 / Fold change vs veh, BCAT1 / RFU, EDEM3 / Fold change vs veh, EDEM3 / RFU, TMEM33 / Fold change vs veh, TMEM33 / RFU, WDR75 / Fold change vs veh, WDR75 / RFU, AHCTF1 / Fold change vs veh, AHCTF1 / RFU, TFRC / Fold change vs veh, TFRC / RFU, ZDHHC17 / Fold change vs veh, ZDHHC17 / RFU, NOM1 / Fold change vs veh, NOM1 / RFU, ARL8B / Fold change vs veh, ARL8B / RFU, ZBTB11 / Fold change vs veh, ZBTB11 / RFU, TAMM41 / Fold change vs veh, TAMM41 / RFU, KIAA1704 /// LOC100996395 / Fold change vs veh, KIAA1704 /// LOC100996395 / RFU, ING1 / Fold change vs veh, ING1 / RFU, TRMT61B / Fold change vs veh, TRMT61B / RFU, FUBP3 / Fold change vs veh, FUBP3 / RFU, TP53 / Fold change vs veh, TP53 / RFU, TNKS2 / Fold change vs veh, TNKS2 / RFU, ZFP14 / Fold change vs veh, ZFP14 / RFU, ACTR2 / Fold change vs veh, ACTR2 / RFU, PPP3R1 / Fold change vs veh, PPP3R1 / RFU, PIK3R1 / Fold change vs veh, PIK3R1 / RFU, HNRNPA1 / Fold change vs veh, HNRNPA1 / RFU, RNF170 / Fold change vs veh, RNF170 / RFU, ZNF28 / Fold change vs veh, ZNF28 / RFU, RNGTT / Fold change vs veh, RNGTT / RFU, OGT / Fold change vs veh, OGT / RFU, BRD1 / Fold change vs veh, BRD1 / RFU, MARS / Fold change vs veh, MARS / RFU, ZNF655 / Fold change vs veh, ZNF655 / RFU, FAHD1 / Fold change vs veh, FAHD1 / RFU, BDP1 / Fold change vs veh, BDP1 / RFU, LRRCC1 / Fold change vs veh, LRRCC1 / RFU, ARID1A / Fold change vs veh, ARID1A / RFU, ZNF146 / Fold change vs veh, ZNF146 / RFU, ZNF330 / Fold change vs veh, ZNF330 / RFU, GPN3 / Fold change vs veh, GPN3 / RFU, C9orf123 / Fold change vs veh, C9orf123 / RFU, N4BP2L2 / Fold change vs veh, N4BP2L2 / RFU, ARFIP1 / Fold change vs veh, ARFIP1 / RFU, FAM179B / Fold change vs veh, FAM179B / RFU, BCL10 / Fold change vs veh, BCL10 / RFU, UHRF1BP1L / Fold change vs veh, UHRF1BP1L / RFU, BET1 / Fold change vs veh, BET1 / RFU, CNOT2 / Fold change vs veh, CNOT2 / RFU, ZNF268 / Fold change vs veh, ZNF268 / Fold change vs veh, ZNF507 / RFU, DGCR2 / Fold change vs veh, DGCR2 / RFU, WDSUB1 / Fold change vs veh, WDSUB1 / Fold change vs veh, HSP90B1 /// MIR3652 / RFU, ADSS / Fold change vs veh, ADSS / RFU, GK / Fold change vs veh, GK / RFU, ZNF148 / Fold change vs veh, ZNF148 / RFU, TAF9 / Fold change vs veh, TAF9 / RFU, SLC1A5 / Fold change vs veh, SLC1A5 / RFU, SLMO2 / Fold change vs veh, SLMO2 / RFU, ABCC4 / Fold change vs veh, ABCC4 / RFU, LOC101060439 /// RAP1B / Fold change vs veh, LOC101060439 /// RAP1B / RFU, RFX7 / Fold change vs veh, RFX7 / RFU, GTPBP10 / Fold change vs veh, GTPBP10 / RFU, CNEP1R1 / Fold change vs veh, CNEP1R1 / RFU, BIVM-ERCC5 /// ERCC5 / Fold change vs veh, BIVM-ERCC5 /// ERCC5 / RFU, ILF3 / Fold change vs veh, ILF3 / RFU 11762660_at / Fold change /veh 11762660_at / RFU VCAN (11757783_s_at) / Fold change /veh VCAN (11757783_s_at) / RFU DDX43 (11728927_at) / Fold change /veh DDX43 (11728927_at) / RFU KRT8 (11758188_x_at) / Fold change /veh KRT8 (11758188_x_at) / RFU NKD1 (11759106_at) / Fold change /veh NKD1 (11759106_at) / RFU SRD5A1 (11742802_a_at) / Fold change /veh SRD5A1 (11742802_a_at) / RFU TPSAB1 /// TPSB2 (11721975_s_at) / Fold change /veh TPSAB1 /// TPSB2 (11721975_s_at) / RFU GSTM3 (11746129_a_at) / Fold change /veh GSTM3 (11746129_a_at) / RFU IL23R (11737362_x_at) / Fold change /veh IL23R (11737362_x_at) / RFU TMEM51 (11727254_a_at) / Fold change /veh TMEM51 (11727254_a_at) / RFU PIWIL2 (11732686_x_at) / Fold change /veh PIWIL2 (11732686_x_at) / RFU ORM1 (11744905_x_at) / Fold change /veh ORM1 (11744905_x_at) / RFU CCDC152 (11743942_at) / Fold change /veh CCDC152 (11743942_at) / RFU ECM1 (11717891_a_at) / Fold change /veh ECM1 (11717891_a_at) / RFU IL23R (11748794_a_at) / Fold change /veh IL23R (11748794_a_at) / RFU TNFAIP8L3 (11732012_x_at) / Fold change /veh TNFAIP8L3 (11732012_x_at) / RFU MBOAT4 (11741988_at) / Fold change /veh MBOAT4 (11741988_at) / RFU 11764193_at / Fold change /veh 11764193_at / RFU TMEM53 (11763286_at) / Fold change /veh TMEM53 (11763286_at) / RFU MAGEB2 (11727129_at) / Fold change /veh MAGEB2 (11727129_at) / RFU TMEM200A (11744735_a_at) / Fold change /veh TMEM200A (11744735_a_at) / RFU CCDC152 (11751479_a_at) / Fold change /veh CCDC152 (11751479_a_at) / RFU FAM211A (11726209_a_at) / Fold change /veh FAM211A (11726209_a_at) / RFU RGS16 (11746705_a_at) / Fold change /veh RGS16 (11746705_a_at) / RFU VCAN (11755009_s_at) / Fold change /veh VCAN (11755009_s_at) / RFU RHOB (11743442_s_at) / Fold change /veh RHOB (11743442_s_at) / RFU RGS16 (11720943_a_at) / Fold change /veh RGS16 (11720943_a_at) / RFU RGS16 (11720944_at) / Fold change /veh RGS16 (11720944_at) / RFU, VPS4B / Fold change vs veh, VPS4B / RFU, CREB1 / Fold change vs veh, CREB1 / RFU, DNAJC13 / Fold change vs veh, DNAJC13 / RFU, GNAQ / Fold change vs veh, GNAQ / RFU, CDK5R1 / Fold change vs veh, CDK5R1 / RFU, ZRANB3 / Fold change vs veh, ZRANB3 / RFU, CUL4A / Fold change vs veh, CUL4A / RFU, CCNY / Fold change vs veh, CCNY / RFU, UFL1 / Fold change vs veh, UFL1 / RFU, COG3 / Fold change vs veh, COG3 / RFU, DIAPH2 / Fold change vs veh, DIAPH2 / RFU, SKA2 / Fold change vs veh, SKA2 / RFU, AFF3 / Fold change vs veh, AFF3 / RFU, LMF1 / Fold change vs veh, LMF1 / RFU, IPO11 / Fold change vs veh, IPO11 / RFU, DFFB / Fold change vs veh, DFFB / RFU, FOXP1 / Fold change vs veh, FOXP1 / RFU, CARD8 / Fold change vs veh, CARD8 / RFU, STRN3 / Fold change vs veh, STRN3 / RFU, ADK / Fold change vs veh, ADK / RFU, RASSF2 / Fold change vs veh, RASSF2 / RFU, WIPF1 / Fold change vs veh, WIPF1 / RFU, LARP1B / Fold change vs veh, LARP1B / RFU, RASA1 / Fold change vs veh, RASA1 / RFU, RB1 / Fold change vs veh, RB1 / RFU, PPFIA1 / Fold change vs veh, PPFIA1 / RFU, MAT2A / Fold change vs veh, MAT2A / RFU, CCT5 / Fold change vs veh, CCT5 / RFU, WDR92 / Fold change vs veh, WDR92 / RFU, CUX1 / Fold change vs veh, CUX1 / RFU, TTC7A / Fold change vs veh, TTC7A / RFU, TMEM135 / Fold change vs veh, TMEM135 / RFU, DEPTOR / Fold change vs veh, DEPTOR / RFU, CPM / Fold change vs veh, CPM / RFU, DNAJB6 / Fold change vs veh, DNAJB6 / RFU, CACNA2D3 / Fold change vs veh, CACNA2D3 / RFU, DTX4 / Fold change vs veh, DTX4 / RFU, TFCP2 / Fold change vs veh, TFCP2 / RFU, GMCL1 /// GMCL1P1 / Fold change vs veh, GMCL1 /// GMCL1P1 / RFU, AEBP2 / Fold change vs veh, AEBP2 / RFU, SNHG1 /// SNORD22 /// SNORD25 /// SNORD26 /// SNORD27 /// SNORD28 /// SNORD29 /// SNORD31 / Fold change vs veh, SNHG1 /// SNORD22 /// SNORD25 /// SNORD26 /// SNORD27 /// SNORD28 /// SNORD29 /// SNORD31 / Fold change (Aza/veh), C12orf56 (ProbeSet 11735607_a_at) / Fold change (ACY-1035/veh), C12orf56 (ProbeSet 11735607_a_at) / Fold change (Aza/veh), FGFR1OP (ProbeSet 11751329_s_at) / Fold change (ACY-1035/veh), FGFR1OP (ProbeSet 11751329_s_at) / Fold change (Aza/veh), VPS36 (ProbeSet 11739960_a_at) / Fold change (ACY-1035/veh), VPS36 (ProbeSet 11739960_a_at) / RFU SYPL1 (11715823_x_at) / Fold change /veh SYPL1 (11715823_x_at) / RFU IGFBP7 (11715501_s_at) / Fold change /veh IGFBP7 (11715501_s_at) / RFU REEP3 (11722064_at) / Fold change /veh REEP3 (11722064_at) / RFU IGLL1 (11728026_x_at) / Fold change /veh IGLL1 (11728026_x_at): dose or concentration left out as unconfirmed.

As for `Nc1ncn([C@@H]2O[C@H](CO)[C@@H](O)[C@H]2O)c(=O)n1` [azacitidine], the “RFU, ZBTB11” value is 125.26 RFU.
